# Experimental data published in patent US10220100B2, “Halogenated phenols for diagnostics, antioxidant protection and drug delivery” (priority 2011, dated 2019).
# What was measured:
# [1] = system: spontaneous mammary tumors; settings: 10 mg by gavage; X-ray imaging about two hours after; mice with spontaneous tumors; same mice before treatment showed no foci
# Source text: As described above, oxidative foci or tumors may be identified by X-ray radiographic imaging of animals following administration of an indigogenic compound of the present invention. The radio-opaque indigo-like product formed and deposited with residence time in FROS-containing tumor tissues may then be detected.
# In this example, female C3H/HeN mice were obtained as multiparous retired breeders (i.e., after 3 to 4 litters) that were positive for a mammary tumor virus. […] Mice showing spontaneous tumors were given 10 mg of 5-Iodo-Indoxyl-3′,5′-Diiodo-4′-hydroxy ether substrate (product of Example 4) by gavage. These mice were then subjected to X-ray imaging of the tumors about two hours after being fed the iodo-indigogenic compound. […] When developed, the X-ray film appears dark in areas where more transmission occurs and light in areas where less transmission occurs.
# [2] = system: sites of the wound or injury; settings: mice administered the compound, small injuries (cuts, scratches); data not shown
# [3] = system: thyroid hormone activity; settings: cited from earlier work
# [4] = Cleavage of the C—C bond during the oxidative dehalogenation reaction; format: physicochemical; settings: presence of free radicals and/or oxidative agents
# Source text: It has also been discovered that other types of bonds or linkages may also be cleaved by oxidative or free radical-mediated dehalogenation of the phenol ring. For example, as described herein, it has now been observed that a carbonyl linkage, a nitrogen linkage, a sulfinyl linkage and possibly a C—C bond on the phenol ring may also be cleaved by the oxidative dehalogenation reaction. These bonds are also considered stable, and their cleavage in connection with the dehalogenation reaction is surprising as well. One caveat with the C—C bond or linkage is that depending on the particular starting compound structure and the substituents or groups attached to the halogenated phenol ring via the C—C bond, the C—C bond or linkage may or may not be generally cleaved during or following the dehalogenation reaction (see below). […] However, other compounds do become cleaved. It is important to note that whether a C—C bond of a particular starting compound is “cleavable,” or becomes cleaved, may not be all-or-nothing (i.e., the C—C bond may be considered non-cleavable even though a small or minute amount of cleavage may occur, and vice versa). Thus, the amount or percentage of cleavage may be partial with the alternatively cleaved or non-cleaved product being possibly undetected or minute. […]
# [5] = Spontaneous dehalogenation and ether cleavage in buffered aqueous solution exposed to sunlight; format: physicochemical; settings: about 1 mM in carbonate buffer (pH 8.0), sunlight for about one hour; yellow/orange solution, iodide released
# Source text: In contrast to reductive deiodination, spontaneous dehalogenation (e.g., deiodination) of a halogentated phenol ring in the presence of an oxidizing agent(s) and/or free radical(s) with cleavage of a chemical linkage, such as an ether linkage, etc., between the phenol ring and a conjugated compound has not been described. According to the present invention, cleavage of the ether linkage between the aromatic rings of thyroid hormone may form visibly colored quinone and iodine-containing products in buffered aqueous solutions in vitro, and this ether cleavage reaction may be accelerated under basic pH conditions and with exposure to ionizing radiation or light. These conditions favor the increased formation of oxidizing agents and/or free radicals, which are believed to promote the reaction. […] A quinone and an iodotyrosine product are also formed by cleavage of the ether linkage during the reaction. According to embodiments of the present invention, a spontaneous reaction of dehalogenation and cleavage of a chemical bond is proposed for the targeted delivery and release of a drug compound at or to sites of inflammation or disease. This spontaneous reaction is further proposed as a basis for scavenging free radicals and/or oxidative agents (FROS) as well as for the creation of a detectable compound(s) that may be used for diagnostic purposes.
smiles,measurement,setting,value
"Oc1c(I)cc(Oc2c[nH]c3ccc(I)cc23)cc1I [5-Iodo-Indolyl-3′,5′-Diiodo-4′-hydroxyl-p-Phenol Ether]",radio-opaque tumor regions or foci by X-ray,[1],radio-opaque tumor regions or foci
same,X-ray detection at sites of wound or injury,[2],strong detection was observed at the sites of the wound or injury
"N[C@@H](Cc1ccc(Oc2cc(I)c(O)c(I)c2)c(I)c1)C(=O)O [Reverse T3, 3,3′,5′-triiodothyronine]",thyroid hormone activity,[3],no measurable thyroid hormone activity
"N[C@@H](Cc1ccc(O)c(I)c1)C(=O)O [mono-iodotyrosine, 3-iodo-4-hydroxy-L-phenylalanine]",cleavage of C—C bond with the dehalogenation reaction,[4],generally not to be cleaved
same,cleavage of C—C bond with the dehalogenation reaction,[4]; listed as MIT,generally not be cleaved
N[C@@H](Cc1cc(I)c(Oc2cc(I)c(O)c(I)c2)c(I)c1)C(=O)O [thyroxine],cleavage of the ether linkage,[5],the ether linkage is broken spontaneously
